pIC50: −log10 of the molar value.
Tests used:
CYP3A4 = CYP3A4 (Homo sapiens, UniProt P08684); assay: Cytochrome P450 (CYP450) Inhibition Assay, CYP3A4 (Vivid fluorescence, BOMCC substrate); details: human, P450 Baculosomes (recombinant CYP3A4), probe BOMCC (Vivid substrate)
sodium channel = assay: Guanidine influx assay (14C-guanidine radiotracer flux, in vitro); assay type: cell-based, human or rat; details: guanidine influx assay using a known cell line that expresses a sodium channel
In short: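 Cells (human/rat Nav, endogenous or recombinant), ~100,000/well, 20-24 h 37 °C/5% CO2. Wash LNHBSS (150 mM choline Cl, HEPES, glucose). Add cpd + aconitine/14C-guanidine mix, RT. Wash, dry, scintillation count. IC50: 4-PL fit; selectivity as IC50 ratio vs reference channel, e.g. Nav1.5.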

CYP3A4, sequence (P08684 whole entry): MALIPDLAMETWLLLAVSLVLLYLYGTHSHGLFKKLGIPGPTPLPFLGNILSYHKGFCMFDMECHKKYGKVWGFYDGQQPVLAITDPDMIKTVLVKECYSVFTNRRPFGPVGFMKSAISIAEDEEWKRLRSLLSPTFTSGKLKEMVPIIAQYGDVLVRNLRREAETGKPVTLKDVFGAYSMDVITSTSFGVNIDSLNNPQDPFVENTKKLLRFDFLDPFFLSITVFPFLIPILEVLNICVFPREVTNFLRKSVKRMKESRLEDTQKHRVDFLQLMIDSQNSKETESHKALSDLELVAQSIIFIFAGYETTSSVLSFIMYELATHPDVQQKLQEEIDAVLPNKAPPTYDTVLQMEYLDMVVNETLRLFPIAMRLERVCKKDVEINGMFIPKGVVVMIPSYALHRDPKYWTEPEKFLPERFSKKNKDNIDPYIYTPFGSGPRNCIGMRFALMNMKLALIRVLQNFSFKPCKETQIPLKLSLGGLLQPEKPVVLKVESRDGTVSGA

| Compound | inhibition at 10 µM (CYP3A4) [%] | melting point [°C] | pIC50 (sodium channel) | pIC50 (sodium channel; activity level class) |
| --- | --- | --- | --- | --- |
| Cn1cc(CN2C(=O)C3(COc4cc5c(cc43)OCCO5)c3ccccc32)ccc1=O (stereo not drawn) [Example 36, 1′-[(1-methyl-6-oxo-1,6-dihydropyridin-3-yl)methyl]-2,3-dihydrospiro[furo[2,3-g][1,4]benzodioxine-8,3′-indol]-2′(1′H)-one] | < 50 | 205 to 207 | 6.00 to 7.00 | – |
| O=C1Nc2c(F)cccc2C12COc1cc3c(cc12)CCO3 (stereo not drawn) [Example 3.16, 7′-fluoro-5,6-dihydrospiro[benzo[1,2-b:5,4-b′]difuran-3,3′-indol]-2′(1′H)-one] | < 50 | > 250 | – | 6.00 to 7.00 |
| CC(=O)N1C(=O)C2(COc3cc4c(cc32)OCCO4)c2ccccc21 (stereo not drawn) [Example 22, 1′-acetyl-2,3-dihydrospiro[furo[2,3-g][1,4]benzodioxine-8,3′-indol]-2′(1′H)-one] | < 50 | 236 to 238 | 7.00 to 9.00 | – |
| COC(=O)c1cccc(CN2C(=O)C3(COc4cc5c(cc43)OCCO5)c3ccccc32)c1 (stereo not drawn) [Example 9.53, methyl 3-[(2′-oxo-2,3-dihydrospiro[furo[2,3-g][1,4]benzodioxine-8,3′-indol]-1′(2′H)-yl)methyl]benzoate] | > 50 | 89 to 97 | 7.00 to 9.00 | – |
| O=C1N(Cc2ccc(OCc3ccccc3)cc2)c2ccccc2C12COc1cc3c(cc12)OCCO3 (stereo not drawn) [Example 9.37, 1′-[4-(benzyloxy)benzyl]-2,3-dihydrospiro[furo[2,3-g][1,4]benzodioxine-8,3′-indol]-2′(1′H)-one] | < 50 | 87 to 89 | – | 6.00 to 7.00 |
| O=C1N(Cc2ncc(F)cc2F)c2ccccc2C12COc1cc3c(cc12)OCCO3 (stereo not drawn) [Example 4.104, 1-[(3,5-difluoropyridin-2-yl)methyl]-2,3-dihydrospiro[furo[2,3-g][1,4]benzodioxine-8,3′-indol]-2′(1′H)-one] | < 50 | 220 to 222 | – | 7.00 to 9.00 |
| Cc1cccc(C)c1NC(=O)c1ccc(CN2C(=O)C3(COc4cc5c(cc43)CCO5)c3ccccc32)cc1 (stereo not drawn) [Example 12.35, N-(2,6-dimethylphenyl)-4-[(2′-oxo-5,6-dihydrospiro[benzo[1,2-b:5,4-b′]difuran-3,3′-indol]-1′(2′H)-yl)methyl]benzamide] | > 50 | > 250 | 5.00 to 6.00 | – |
| O=C1N(Cc2ccccc2C(F)(F)F)c2ccccc2[C@]12COc1cc3c(cc12)OCCO3 [Example 4.116, (8S)-1′-[2-(trifluoromethyl)benzyl]-2,3-dihydrospiro[furo[2,3-g][1,4]benzodioxine-8,3′-indol]-2′(1′H)-one] | < 50 | 137 to 138 | – | 7.00 to 9.00 |
| CN1C(=O)COc2cc3c(cc21)C1(CO3)C(=O)Nc2ccccc21 (stereo not drawn) [Example 3.22, 1-methyl-1H-spiro[furo[3,2-g][1,4]benzoxazine-8,3′-indole]-2,2′(1′H,3H)-dione] | < 50 | > 250 | – | 5.00 to 6.00 |
| O=C1N(Cc2ccc(Cl)s2)c2c(C(F)(F)F)cccc2C12COc1cc3c(cc12)OCO3 (stereo not drawn) [Example 4.75, 1-[(5-chloro-2-thienyl)methyl]-7′-(trifluoromethyl)spiro[furo[2,3-f][1,3]benzodioxole-7,3′-indol]-2′(1′H)-one] | > 50 | 165 to 166 | – | 6.00 to 7.00 |
| N#Cc1cccc2c1NC(=O)C21COc2cc3c(cc21)OCO3 (stereo not drawn) [Example 11.75, 2′-oxo-1′,2′-dihydrospiro[furo[2,3-f][1,3]benzodioxole-7,3′-indole]-7′-carbonitrile] | > 50 | 205 to 207 | 6.00 to 7.00 | – |
| Cc1nnc(-c2ccc(CN3C(=O)C4(COc5cc6c(cc54)CCO6)c4ccccc43)cc2)[nH]1 (stereo not drawn) [Example 11.29, 1′-[4(5-methyl-4H-1,2,4-triazol-3-yl)benzyl]-5,6-dihydrospiro[benzo[1,2-b:5,4-b′]difuran-3,3′-indol]-2′(1′H)-one] | > 50 | 169 to 180 | 6.00 to 7.00 | – |
| O=C1N(Cc2ccccn2)c2ccc3ncsc3c2C12COc1cc3c(cc12)OCCO3 (stereo not drawn) [Example 9.72, 6′-(pyridin-2-ylmethyl)-2,3-dihydrospiro[furo[2,3-g][1,4]-benzodioxine-8,8′-[1,3]thiazolo[5,4-e]indol]-7′(6′H)-one] | > 50 | 156 to 158 | 6.00 to 7.00 | – |
| O=C1N(Cc2ccc(Cl)s2)c2cccc(Br)c2C12COc1cc3c(cc12)OCO3 (stereo not drawn) [Example 4.86, 4′-bromo-1′-[1(5-chloro-2-thienyl)methyl]spiro[furo[2,3-f][1,3]benzodioxole-7,3′-indol]-2′(1′H)-one] | > 50 | 85 to 87 | – | 7.00 to 9.00 |
| O=C1N(Cc2cnccn2)c2ccccc2C12COc1cc3c(cc12)CCO3 (stereo not drawn) [Example 9.7, 1′-(pyrazin-2-ylmethyl)-5,6-dihydrospiro[benzo[1,2-b:5,4-b′]difuran-3,3′-indol]-2′(1′H)-one] | < 50 | 143 to 144 | – | 7.00 to 9.00 |
| O=C1N(C[C@H]2CCCO2)c2cc3c(cc2C12COc1cc4c(cc12)CCO4)OCCO3 (stereo partly drawn) [Example 2.26, 6-(((R)-tetrahydrofuran-2-yl)methyl)-2,3,5′,6′-tetrahydro-2′H-spiro[[1,4]dioxino[2,3-f]indole-8,3′-benzofuro[6,5-b]furan]-7(6H)-one] | < 50 | 220 to 225 | – | 5.00 to 6.00 |
| COc1ccc(CN2C(=O)C3(COc4cc5c(C)noc5cc43)c3ccccc32)cc1 (stereo not drawn) [Example 2.41, 1′-(4-methoxybenzyl)-3-methylspiro[furo[2,3-f][1,2]benzisoxazole-7,3′-indol]-2′(1′H)-one] | > 50 | 183 to 184 | – | 5.00 to 6.00 |
| O=C1Nc2ccccc2C12COc1c2ccc2c1OCCO2 (stereo not drawn) [Example 3.48, 2,3-dihydrospiro[furo[2,3-f][1,4]benzodioxine-7,3′-indol]-2′(1′H)-one] | < 50 | > 250 | – | 5.00 to 6.00 |
| CCNC(=O)c1ccc(CN2C(=O)C3(COc4cc5c(cc43)CCO5)c3ccccc32)cc1 (stereo not drawn) [Example 12.39, N-ethyl-4-[(2′-oxo-5,6-dihydrospiro[benzo[1,2-b:5,4-b′]difuran-3,3′-indol]-1′(2′H)-yl)methyl]benzamide] | > 50 | 190 to 191 | 6.00 to 7.00 | – |
| CC(C)CCN1C(=O)C2(COc3cc(O)ccc32)c2ccccc21 (stereo not drawn) [Example 11.49, 6-hydroxy-1′-(3-methylbutyl)spiro[1-benzofuran-3,3′-indol]-2′(1′H)-one] | > 50 | 101 to 103 | 7.00 to 9.00 | – |
| N#Cc1cccc2c1N(Cc1ccc(Cl)s1)C(=O)C21COc2cc3c(cc21)OCO3 (stereo not drawn) [Example 4.87, 1′-[(5-chloro-2-thienyl)methyl]-2′-oxo-1′,2′-dihydrospiro[furo[2,3-f][1,3]benzodioxole-7,3′-indole]-7′-carbonitrile] | > 50 | 192 to 193 | – | 7.00 to 9.00 |
| CC(C)N1CCOC(CN2C(=O)C3(COc4cc5c(cc43)OCCO5)c3ccccc32)C1 (stereo not drawn) [Example 11.103, 1′-{[4-(1-methylethyl)morpholin-2-yl]methyl}-2,3-dihydrospiro[furo[2,3-g][1,4]benzodioxine-8,3′-indol]-2′(1′H)-one] | > 50 | 102 to 125 | 6.00 to 7.00 | – |
| Cc1ccc(NC(=O)c2ccc(CN3C(=O)C4(COc5cc6c(cc54)CCO6)c4ccccc43)cc2)c(C)c1 (stereo not drawn) [Example 12.37, N-(2,4-dimethylphenyl)-4-[(2′-oxo-5,6-dihydrospiro[benzo[1,2-b:5,4-b′]difuran-3,3′-indol]-1′(2′H)-yl)methyl]benzamide] | < 50 | 249 to 251 | 6.00 to 7.00 | – |
| Cc1cccc(C)c1NC(=O)CN1C(=O)C2(COc3cc4c(cc32)CCO4)c2ccccc21 (stereo not drawn) [Example 12.56, N-(2,6-dimethylphenyl)-2-(2′-oxo-5,6-dihydrospiro[benzo[1,2-b:5,4-b′]difuran-3,3′-indol]-1′(2′H)-yl)acetamide] | > 50 | 261 to 262 | 5.00 to 6.00 | – |
| O=C1N(Cc2ccc(N/C=N\O)nc2)c2ccccc2C12COc1cc3c(cc12)OCCO3 (stereo not drawn) [Example 38, N′-hydroxy-N-{5-[(2′-oxo-2,3-dihydrospiro[furo[2,3-g][1,4]benzodioxine-8,3′-indol]-1′(2′H)-yl)methyl]pyridin-2-yl}imidoformamide] | < 50 | 231 to 232 | 7.00 to 9.00 | – |
| O=C1N(Cc2cc(C(F)(F)F)ccn2)c2ccccc2C12COc1cc3c(cc12)OCCO3 (stereo not drawn) [Example 23, 1′-{[4-(trifluoromethyl)pyridin-2-yl]methyl}-2,3-dihydrospiro[furo[2,3-g][1,4]benzodioxine-8,3′-indol]-2′(1′H)-one] | < 50 | 154 to 155 | 7.00 to 9.00 | – |
| Cc1noc2cc3c(cc12)C1(CO3)C(=O)Nc2ccccc21 (stereo not drawn) [Example 3.6, 3-methylspiro[furo[3,2-f][1,2]benzisoxazole-5,3′-indol]-2′(1′H)-one] | < 50 | 226 to 227 | – | 6.00 to 7.00 |
| O=C1N(CCCO)c2ccccc2C12COc1cc3c(cc12)CCO3 (stereo not drawn) [Example 11.34, 1′-(3-hydroxypropyl)-5,6-dihydrospiro[benzo[1,2-b:5,4-b′]difuran-3,3′-indol]-2′(1′H)-one] | < 50 | 54 to 56 | 6.00 to 7.00 | – |

Reference: patent US8263606B2 (Xenon Pharmaceuticals Inc., priority 2008, dated 2012)
